Results as given in the supplement of paper PMC10933113.
Where a name gives a salt, the structure may show the parent alone. ± gives the uncertainty stated by the source.

Experiments:
[1] = system: KeratinoSens (HaCaT ARE-luciferase) cells; assay: AC50 of Nrf2/ARE luciferase induction; higher = less potent; details: exposure time: 24 h
[2] = system: KeratinoSens (HaCaT ARE-luciferase) cells; assay: efficacy of ARE luciferase induction relative to DMSO (% activity over DMSO); higher = stronger induction; details: exposure time: 24 h
THP-1 [3] = assay: AC50 of IL-8 secretion induction; higher = less potent; details: exposure time: 18 h
[4] = system: cysteine peptide Ac-RFAACAA-COOH; assay: efficacy of cysteine peptide change (negative = depletion) (% activity); higher = less depletion; details: incubation time: 24 h
[5] = system: cysteine peptide Ac-RFAACAA-COOH; assay: AC50 of cysteine peptide concentration-response (direction given by sign of efficacy); higher = less potent; details: incubation time: 24 h
THP-1 [6] = assay: efficacy of IL-8 induction relative to DMSO (% activity); higher = stronger induction; details: exposure time: 18 h
[7] = system: lysine peptide Ac-RFAAKAA-COOH; assay: efficacy of lysine peptide change (negative = depletion) (% activity); higher = less depletion; details: incubation time: 24 h
[8] = system: KeratinoSens (HaCaT ARE-luciferase) cells; assay: cytotoxicity AC50 (CellTiter-Fluor viability); higher = less cytotoxic; details: exposure time: 24 h

With Sc1nc2ccccc2s1 [2-Mercaptobenzothiazole] the “AC50 of Nrf2/ARE luciferase induction” value [1] was 20.7 µM, the “efficacy of ARE luciferase induction” value [2] was 87.1 ± 23 and the “AC50 of IL-8 secretion induction” value (THP-1 [3]) was 28.3 µM. The “efficacy of cysteine peptide change” value [4] was -86.4 ± 10, the AC50 [5] was 32.9 ± 2.2 µM and the “efficacy of IL-8 induction” value (THP-1 [6]) was 21.3 ± 41. For the same compound, the “efficacy of lysine peptide change” value [7] was 40.3 ± 17.
For Cn1sccc1=O [2-Methyl-4-isothiazolin-3-one hydrochloride], the “AC50 of Nrf2/ARE luciferase induction” value [1] was 13.7 µM, the “cytotoxicity AC50” value [8] was 25.2 ± 2.9 µM and the “efficacy of ARE luciferase induction” value [2] was 118 ± 32. For the same compound, the “AC50 of IL-8 secretion induction” value (THP-1 [3]) was 35.9 µM, the “efficacy of cysteine peptide change” value [4] was -98.5 ± 3.1 and the AC50 [5] was 2.42 ± 0.16 µM. For the same compound, the “efficacy of IL-8 induction” value (THP-1 [6]) was 50.4 ± 5.3 and the “efficacy of lysine peptide change” value [7] was -0.97 ± 8.8.
In the case of c1csc(SSc2cccs2)c1 [2-Thienyl disulfide], the “AC50 of Nrf2/ARE luciferase induction” value [1] is reported as 33.5 µM, the “cytotoxicity AC50” value [8] is reported as 41.4 ± 2.8 µM and the “efficacy of ARE luciferase induction” value [2] is reported as 126 ± 80. For the same compound, the “AC50 of IL-8 secretion induction” value (THP-1 [3]) was 82.7 µM, the “efficacy of cysteine peptide change” value [4] was -94.7 ± 2.8 and the AC50 [5] was 1.04 ± 0.07 µM. For the same compound, the “efficacy of IL-8 induction” value (THP-1 [6]) was 81.3 ± 8.7 and the “efficacy of lysine peptide change” value [7] was -11.6 ± 10.
With c1cc(N(CC2CO2)CC2CO2)ccc1OCC1CO1 (stereo not drawn) [4-(Diglycidylamino)phenyl glycidyl ether] the “AC50 of Nrf2/ARE luciferase induction” value [1] was 32.9 µM, the “cytotoxicity AC50” value [8] was 63.9 ± 12 µM and the “efficacy of ARE luciferase induction” value [2] was 103 ± 58. The “AC50 of IL-8 secretion induction” value (THP-1 [3]) was 76.9 µM, the “efficacy of cysteine peptide change” value [4] was -36.5 ± 12 and the AC50 [5] was 20.3 ± 16 µM. For the same compound, the “efficacy of IL-8 induction” value (THP-1 [6]) was 62.3 ± 18 and the “efficacy of lysine peptide change” value [7] was 41.8 ± 1.5.
For CN(C)c1ccc(N(C)C)cc1 [*N,N,N',N'-Tetramethyl-p-phenylenediamine], the “AC50 of Nrf2/ARE luciferase induction” value [1] was 20.9 µM, the “cytotoxicity AC50” value [8] was 57 ± 12 µM and the “efficacy of ARE luciferase induction” value [2] was 98.6 ± 34. The “AC50 of IL-8 secretion induction” value (THP-1 [3]) was 76.5 µM, the “efficacy of cysteine peptide change” value [4] was -93.1 ± 3.4 and the AC50 [5] was 3.26 ± 0.91 µM. For the same compound, the “efficacy of IL-8 induction” value (THP-1 [6]) was 130 ± 7.7 and the “efficacy of lysine peptide change” value [7] was -28.7 ± 13.
For S=C=NCc1ccccc1 [BENZYL ISOTHIOCYANATE], the “AC50 of Nrf2/ARE luciferase induction” value [1] was 24.8 µM, the “efficacy of ARE luciferase induction” value [2] was 278 ± 170 and the “AC50 of IL-8 secretion induction” value (THP-1 [3]) was 11.4 µM. The “efficacy of cysteine peptide change” value [4] was -57.9 ± 6.4, the AC50 [5] was 34.2 ± 2.2 µM and the “efficacy of IL-8 induction” value (THP-1 [6]) was 40.8 ± 25. The “efficacy of lysine peptide change” value [7] was 19.8 ± 9.3.
For Oc1c(I)cc(Cl)c2cccnc12 [Clioquinol], the “AC50 of Nrf2/ARE luciferase induction” value [1] was 6.33 µM, the “cytotoxicity AC50” value [8] was 10.4 ± 1.3 µM and the “efficacy of ARE luciferase induction” value [2] was 87.3 ± 32. The “AC50 of IL-8 secretion induction” value (THP-1 [3]) was 21.6 µM, the “efficacy of cysteine peptide change” value [4] was -68.8 ± 8.1 and the AC50 [5] was 1.52 ± 0.89 µM. The “efficacy of IL-8 induction” value (THP-1 [6]) was 125 ± 14 and the “efficacy of lysine peptide change” value [7] was -8.28 ± 7.3.
COc1cc(/C=C2\CCC/C(=C\c3ccc(O)c(OC)c3)C2=O)ccc1O [Cyclovalone] was tested, and the “AC50 of Nrf2/ARE luciferase induction” value [1] was 15.8 µM, the “cytotoxicity AC50” value [8] was 22.5 ± 2.6 µM and the “efficacy of ARE luciferase induction” value [2] was 242 ± 83. For the same compound, the “AC50 of IL-8 secretion induction” value (THP-1 [3]) was 40 µM, the “efficacy of cysteine peptide change” value [4] was -50.1 ± 12 and the AC50 [5] was 0.87 ± 0.35 µM. The “efficacy of IL-8 induction” value (THP-1 [6]) was 44.5 ± 6.9 and the “efficacy of lysine peptide change” value [7] was 15.9 ± 15.
For c1coc(-c2nc3ccccc3[nH]2)c1 [Fuberidazole], the “AC50 of Nrf2/ARE luciferase induction” value [1] was 32 µM, the “cytotoxicity AC50” value [8] was 38.7 ± 6.6 µM and the “efficacy of ARE luciferase induction” value [2] was 96.2 ± 26. The “AC50 of IL-8 secretion induction” value (THP-1 [3]) was 48.3 µM, the “efficacy of cysteine peptide change” value [4] was -100 ± 9.1 and the AC50 [5] was 12.3 ± 4.7 µM. For the same compound, the “efficacy of IL-8 induction” value (THP-1 [6]) was 78.3 ± 0.93 and the “efficacy of lysine peptide change” value [7] was -20.8 ± 15.
CC(C)CC(C)Nc1ccc(Nc2ccccc2)cc1 (stereo not drawn) [N-(1,3-Dimethylbutyl)-N'-phenyl-p-phenylenediamine] was tested, and the “AC50 of Nrf2/ARE luciferase induction” value [1] was 26.4 µM, the “cytotoxicity AC50” value [8] was 38.5 ± 5.3 µM and the “efficacy of ARE luciferase induction” value [2] was 148 ± 100. The “AC50 of IL-8 secretion induction” value (THP-1 [3]) was 32.9 µM, the “efficacy of cysteine peptide change” value [4] was -77.3 ± 10 and the AC50 [5] was 0.88 ± 0.99 µM. For the same compound, the “efficacy of IL-8 induction” value (THP-1 [6]) was 29.6 ± 1.7 and the “efficacy of lysine peptide change” value [7] was 2.97 ± 5.1.
In the case of C[C@@H]1O[C@@H](O[C@H]2C[C@@H](O)[C@]3(CO)[C@H]4[C@H](O)C[C@]5(C)[C@@H](C6=CC(=O)OC6)CC[C@]5(O)[C@@H]4CC[C@]3(O)C2)[C@H](O)[C@H](O)[C@H]1O [Ouabain], the “AC50 of Nrf2/ARE luciferase induction” value [1] is reported as 0.96 µM, the “cytotoxicity AC50” value [8] is reported as 1.58 µM and the “efficacy of ARE luciferase induction” value [2] is reported as 220 ± 65. The “AC50 of IL-8 secretion induction” value (THP-1 [3]) was 2.99 µM, the “efficacy of cysteine peptide change” value [4] was 3.17 ± 11 and the “efficacy of IL-8 induction” value (THP-1 [6]) was 35.4 ± 9.9. The “efficacy of lysine peptide change” value [7] was 6.65 ± 12.
With CCCCc1ccc2[nH]c(NC(=O)OC)nc2c1 [Parbendazole*] the “AC50 of Nrf2/ARE luciferase induction” value [1] was 21.1 µM, the “cytotoxicity AC50” value [8] was 5.79 ± 1.6 µM and the “efficacy of ARE luciferase induction” value [2] was 66.8 ± 26. The “AC50 of IL-8 secretion induction” value (THP-1 [3]) was 38.4 µM, the “efficacy of cysteine peptide change” value [4] was -4.47 ± 11 and the “efficacy of IL-8 induction” value (THP-1 [6]) was 77.1 ± 5.2. The “efficacy of lysine peptide change” value [7] was 56 ± 8.1.
For Nc1ccc2cc3ccc(N)cc3nc2c1 [Proflavin hemisulfate#], the “AC50 of Nrf2/ARE luciferase induction” value [1] was 7.94 µM, the “efficacy of ARE luciferase induction” value [2] was 390 ± 270 and the “AC50 of IL-8 secretion induction” value (THP-1 [3]) was 35.5 µM. For the same compound, the “efficacy of cysteine peptide change” value [4] was 88.8 ± 300, the AC50 [5] was 11.9 ± 20 µM and the “efficacy of IL-8 induction” value (THP-1 [6]) was 68 ± 3.1. For the same compound, the “efficacy of lysine peptide change” value [7] was 115 ± 4.9.
O=c1n(CC2CO2)c(=O)n(CC2CO2)c(=O)n1CC1CO1 (stereo not drawn) [Triglycidyl isocyanurate] was tested, and the “AC50 of Nrf2/ARE luciferase induction” value [1] was 14.1 µM, the “cytotoxicity AC50” value [8] was 28.3 ± 3.2 µM and the “efficacy of ARE luciferase induction” value [2] was 90.3 ± 20. The “AC50 of IL-8 secretion induction” value (THP-1 [3]) was 36.9 µM, the “efficacy of cysteine peptide change” value [4] was -3.96 ± 6.9 and the “efficacy of IL-8 induction” value (THP-1 [6]) was 157 ± 24. The “efficacy of lysine peptide change” value [7] was 35 ± 20.
For CC(C)(C)c1cc(O)ccc1O [tert-Butylhydroquinone], the “AC50 of Nrf2/ARE luciferase induction” value [1] was 33 µM, the “efficacy of ARE luciferase induction” value [2] was 293 ± 55 and the “AC50 of IL-8 secretion induction” value (THP-1 [3]) was 39.8 µM. For the same compound, the “efficacy of cysteine peptide change” value [4] was -112 ± 5.2, the AC50 [5] was 34.8 ± 13 µM and the “efficacy of IL-8 induction” value (THP-1 [6]) was 114 ± 90. For the same compound, the “efficacy of lysine peptide change” value [7] was -30.8 ± 9.1.
